Measured values reported in patent US20210038730A1, “PEPTIDE NANOFIBERS” (UNIVERSITY OF PORTSMOUTH HIGHER EDUCATION CORPORATION, priority 2018, published 2021).
Several values for one entry are separate records, joined by “and”; a condition that tells them apart may be missing. Identical values can stand only once. Like-named read-outs stand apart in the source and are kept apart here.

What was measured:
[1] = test system: hCMEC/D3 cells; experiment: Cytotoxicity (MTT) in blood-brain barrier endothelial cells; type: cell-based, human; conditions: 3.5-140 μM, 4 and 24 hours
Description: Human brain microvessel endothelial cells (hCMEC/D3) and cerebral astrocytes (SC-1800) were maintained in a humidified atmosphere of 5% CO2, and the medium was refreshed every 2-3 days. hCMEC/D3 cells were cultured in endothelial basal medium-2 (EBM-2) supplemented with the EGM-2 Bullet Kit and 2% (v/v) human serum. SC-1800 were cultured in astrocytes basal medium (ABM) supplemented with AGM Bullet Kit and 3% (v/v) human serum. […] Subsequently, complete growth medium (4 mL) was added and cells were centrifuged using a C-28A centrifuge (Boeco, Hamburg, Germany) at 1,000 rpm for 5 minutes. Supernatant was discarded, and pellet was re-suspended in 1 mL of medium. The cell number was counted using Trypan Blue Exclusion Assay in the Countess II Automated Cell Counter (Thermo Scientific, Paisley, UK). hCMEC/D3 and SC-1800 cells were seeded at 20,000 cells/cm^2 in complete medium and allowed to attach overnight. […] Cell metabolic activity was measured after 4 and 24 hours using (3-(4,5)-dimethylthiazol-2-yl)-2,5-diphenyltetrazolium bromide ([…]) assay. […] Subsequently, DMSO (100 μL) was added to dissolve the formazan crystals and absorbance was measured at 570 and 690 nm. Metabolic activity was calculated by subtracting the absorbance values at 690 nm to 570 nm to remove background, and dividing the values by the control to express as a percentage (%) of the control using the equation below. […]

[2] = target: T1, GnRH-R expressed on glioblastoma cells (Homo sapiens, UniProt P30968); experiment: Receptor binding by single molecule force spectroscopy; conditions: for koff: read-out: Dissociation Rate (Koff)
T1 construct: GnRH peptides to the GnRH-R expressed on glioblastoma cells; endogenous in cells; host or cells: U-87 MG, UP-007, UP-029, SEBTA-023 glioblastoma cells (living)
T1 sequence (P30968 1-328): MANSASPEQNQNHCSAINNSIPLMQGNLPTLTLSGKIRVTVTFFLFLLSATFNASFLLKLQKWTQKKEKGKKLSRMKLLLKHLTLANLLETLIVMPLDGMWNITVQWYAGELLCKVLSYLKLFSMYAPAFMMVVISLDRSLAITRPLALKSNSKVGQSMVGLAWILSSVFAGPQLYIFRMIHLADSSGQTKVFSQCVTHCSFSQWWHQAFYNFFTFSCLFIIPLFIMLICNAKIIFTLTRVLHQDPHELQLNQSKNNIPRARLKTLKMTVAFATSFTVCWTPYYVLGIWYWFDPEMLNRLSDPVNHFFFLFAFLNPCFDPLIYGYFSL
Description: The binding of the GnRH analogues to GnRH-R was assessed using single molecule force spectroscopy (SMFS) and Topography and Recognition (TREC) imaging based on AFM. AFM tips were functionalised with Glu-GnRH, goserelin acetate and […] as a monomer and nanofibers using a previously described method ^9, 10. Silicon nitride (6-20 pN/nm spring constant, Bruker, Mass., USA) and magnetically coated […] tips (Keysight, Calif., USA) were used for SMFS and TREC studies, respectively. […] Subsequently, acetal groups were converted into aldehyde groups by immersing the tips in a 1% (w/v) citric acid solution for 10 minutes. […] Following an incubation of 2 hours, the free aldehyde groups were inactivated by ethanolamine for 10 minutes. AFM tips were washed with PBS three times and stored at 4° C. […] Loading rates were calculated by multiplying the pulling velocity (v) with the effective spring constant (keff). Spring constants were determined by the thermal-noise method. The force-distance curves were acquired using PicoView 1.12 (Agilent Technologies, Inc., California, USA) and analysed in Matlab 8.1 software (MathWorks, Massachusetts, USA). […] Amplitude-distance curves were collected on a glass coverslip to adjust the free oscillation amplitude, and to determine the optimal amplitude reduction value for driving the feedback loop during the imaging. Free amplitude of cantilever oscillation was 30 nm and the excitation frequency was set to 9 kHz.

[3] = target: T2, GnRH-R (Homo sapiens, UniProt P30968); experiment: Forskolin-induced intracellular cAMP ELISA; type: cell-based; conditions: forskolin 5 μM, 15 minutes
T2 construct: The intracellular cAMP was quantified using the Direct cAMP ELISA kit; endogenous in cells
T2 sequence (P30968 1-328): T1 sequence (P30968 1-328)

CCCCCCCCCCCCCCCC(=O)Oc1ccc(C[C@H](NC(=O)[C@H](CO)NC(=O)[C@H](Cc2c[nH]c3ccccc23)NC(=O)[C@H](Cc2c[nH]cn2)NC(=O)[C@@H](N)CCC(=O)O)C(=O)NCC(=O)N[C@@H](CC(C)C)C(=O)N[C@@H](CCCNC(=N)N)C(=O)N2CCC[C@H]2C(=O)NCC(N)=O)cc1 [TPGnRH, Tyrosine (O-Palmitoyl)-Glu-GnRH]
cytotoxicity (metabolic activity, MTT) [1]: no cytotoxicity | Binding Force ([2]; SEBTA-023): 41.4 ± 3.85 pN | Binding Probability ([2]; SEBTA-023): 17.04±3.1% | koff ([2]; SEBTA-023): 2.49 ± 0.12 s⁻¹ | Binding Force ([2]; U-87 MG): 30.00 ± 5.57 pN | Binding Probability ([2]; U-87 MG): 13.2±0.9% and 13.2 ± 1.64% | koff ([2]; U-87 MG): 0.89 ± 0.1 s⁻¹ | Binding Force ([2]; UP-007): 50.80 ± 2.88 pN | Binding Probability ([2]; UP-007): 20.5±5.8% | koff ([2]; UP-007): 1.23 ± 0.13 s⁻¹ | Binding Force ([2]; UP-029): 46.4 ± 9.45 pN | Binding Probability ([2]; UP-029): 9.5±2.5% and 9.51 ± 2.53% | koff ([2]; UP-029): 2.03 ± 4.14 s⁻¹ | effect on forskolin-induced cAMP intracellular accumulation [3]: counteracted the forskolin-induced cAMP intracellular accumulation
